The values that follow are results of earlier work, collected in PMC9558053, “Development of a novel high-throughput screen for the identification of new inhibitors of protein S-acylation” (The Journal of Biological Chemistry, 2022).

For this data set, the system named is zDHHC20. Also noted: method as in PMID 34467875, PMID 34309372. The conditions noted are these: ref [33], [39]; read-out: IC50 for inhibition of zDHHC20 activity in vitro; cited from earlier work.

`C=CC(=O)N(CC#N)CCCCCCCCCCCCCC` [N-cyanomethyl-N-myracrylamide]: the IC50 was 1350 ± 260 nM.

As a reminder, the IC50 is the concentration that gives 50% inhibition.
